ChEMBL document CHEMBL1201862, “PubChem BioAssay data set” (2004)
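In this assay, cells in 96-well plates receive the compound at five concentrations for 48 hours. Endpoints are linearly interpolated between the surrounding concentrations. GI50 = concentration required for 50% inhibition of growth.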 The source made the active and inactive calls. No stated cut-off is given here; in the data, active = GI50 up to about 1.1 µM and inactive = higher.

Tests used:
Assay in all cases: NCI tumour cell line growth inhibition, 48 h
[1] = test system: COLO 205
[2] = test system: EKVX
[3] = test system: HCT-116
[4] = test system: HCT-15
[5] = test system: HT-29
[6] = test system: KM12
[7] = test system: M14
[8] = test system: MDA-MB-231
[9] = test system: OVCAR-5
[10] = test system: OVCAR-8
[11] = test system: PC-3
[12] = test system: RPMI-8226
[13] = test system: SF-295
[14] = test system: SN12C
[15] = test system: TK-10
[16] = test system: U-251
[17] = test system: UO-31
[18] = test system: DU-145
[19] = test system: HOP-92
[20] = test system: RXF 393

| SMILES | GI50 [1] | GI50 [2] | GI50 [3] | GI50 [4] [µM] | GI50 [5] | GI50 [6] | GI50 [7] | GI50 [8] | GI50 [9] | GI50 [10] | GI50 [11] | GI50 [12] | GI50 [13] | GI50 [14] | GI50 [15] | GI50 [16] | GI50 [17] | GI50 [18] | GI50 [19] | GI50 [20] |
| --- | --- | --- | --- | --- | --- | --- | --- | --- | --- | --- | --- | --- | --- | --- | --- | --- | --- | --- | --- | --- |
| O=C(C1C(c2ccccc2)N1C(c1ccccc1)c1ccccc1)C1C(c2ccccc2)N1C(c1ccccc1)c1ccccc1 (configuration not stated) | > 10 µM (inactive) | 48.2 µM (inactive) | 5.08 µM (inactive) | > 10 | 13.6 µM (inactive) | 26.9 µM (inactive) | 37.2 µM (inactive) | 19.8 µM (inactive) | 32.1 µM (inactive) | 29.6 µM (inactive) | 23.9 µM (inactive) | 3.59 µM (inactive) | 75.7 µM (inactive) | 21.8 µM (inactive) | 24.8 µM (inactive) | 25.1 µM (inactive) | 21 µM (inactive) |  |  |  |
| O=c1c2ccccc2ncn1COCc1ccccc1 | > 100 µM (inactive) | > 100 µM (inactive) | > 100 µM (inactive) | > 100 | > 100 µM (inactive) | > 100 µM (inactive) | > 100 µM (inactive) |  | > 100 µM (inactive) | > 100 µM (inactive) |  |  | > 100 µM (inactive) |  | > 100 µM (inactive) | > 100 µM (inactive) | 77.3 µM (inactive) | > 100 µM (inactive) | > 100 µM (inactive) | > 100 µM (inactive) |
| CN1Cc2cc3c(cc2-c2ccccc21)OCO3 | > 100 µM (inactive) | > 100 µM (inactive) | > 100 µM (inactive) |  | > 100 µM (inactive) | > 100 µM (inactive) | > 100 µM (inactive) |  | > 100 µM (inactive) | > 100 µM (inactive) |  | > 100 µM (inactive) | > 100 µM (inactive) | > 100 µM (inactive) | > 100 µM (inactive) | > 100 µM (inactive) | > 100 µM (inactive) |  | > 100 µM (inactive) | > 100 µM (inactive) |
| COC(=O)C1=C(C)N2CCOC2CC1c1ccccc1 (configuration not stated) | > 100 µM (inactive) | > 100 µM (inactive) | > 100 µM (inactive) |  | > 100 µM (inactive) | > 100 µM (inactive) | > 100 µM (inactive) |  |  | > 100 µM (inactive) |  | 40.4 µM (inactive) | > 100 µM (inactive) |  | > 100 µM (inactive) |  | > 100 µM (inactive) |  | 44.7 µM (inactive) | 48.6 µM (inactive) |
| O=C(CCc1ccccc1)CC1OC(=O)C(Cl)=C1Cl (configuration not stated) | 17.2 µM (inactive) | 38.9 µM (inactive) | 14.8 µM (inactive) | 16 | 19.2 µM (inactive) | 17.5 µM (inactive) | 16.5 µM (inactive) |  | 20 µM (inactive) | 20 µM (inactive) |  | 32.6 µM (inactive) | 27.4 µM (inactive) | 18.5 µM (inactive) | 33.4 µM (inactive) | 16.4 µM (inactive) | 19.3 µM (inactive) |  | 23.9 µM (inactive) | 29.5 µM (inactive) |
| OCC1OC(n2cnc3c2NC=NC[C@H]3O)C(O)C1O (some centres not stated) | > 450 µM (inactive) | > 450 µM (inactive) | 260 µM (inactive) | 205 | > 450 µM (inactive) | > 450 µM (inactive) |  |  | > 450 µM (inactive) | > 450 µM (inactive) |  | 201 µM (inactive) | > 450 µM (inactive) | 293 µM (inactive) |  | > 450 µM (inactive) | 282 µM (inactive) |  | > 192 µM (inactive) | 238 µM (inactive) |
| Cc1cc(N(CCC#N)CCC#N)ccc1/C=C(\NC(=O)/C=C/c1ccccc1)C(=O)Nc1ccccc1Cl | > 100 µM (inactive) | > 100 µM (inactive) | > 100 µM (inactive) | > 100 | > 100 µM (inactive) | > 100 µM (inactive) | > 100 µM (inactive) |  | > 100 µM (inactive) | > 100 µM (inactive) |  | > 100 µM (inactive) | 92 µM (inactive) | > 100 µM (inactive) |  | 59.6 µM (inactive) | > 100 µM (inactive) |  | 29.2 µM (inactive) | > 100 µM (inactive) |
| Clc1ccccc1C(n1ncc2ccccc21)n1ncc2ccccc21 |  |  | 25.6 µM (inactive) | 38.3 | 35.9 µM (inactive) | 25.7 µM (inactive) | 31 µM (inactive) |  | 37.7 µM (inactive) | > 100 µM (inactive) |  | 18.2 µM (inactive) | 64.6 µM (inactive) | 65.2 µM (inactive) | 99.8 µM (inactive) | 35.8 µM (inactive) | 31.3 µM (inactive) |  | 24.3 µM (inactive) | 28.3 µM (inactive) |
| COC(=O)c1sc(=O)n(-c2ccccc2)c1SCc1ccccc1 | > 100 µM (inactive) | > 100 µM (inactive) | > 100 µM (inactive) | > 100 | > 100 µM (inactive) | > 100 µM (inactive) | > 100 µM (inactive) |  | > 100 µM (inactive) | > 100 µM (inactive) |  | > 100 µM (inactive) | > 100 µM (inactive) | > 100 µM (inactive) | > 100 µM (inactive) | > 100 µM (inactive) | > 100 µM (inactive) |  | 30.1 µM (inactive) | > 100 µM (inactive) |
